From patent US11732017B2, “HLA-A24 agonist epitopes of MUC1-C oncoprotein and compositions and methods of use” (The USA, as represented by the Secretary, Dept. of Health …, priority 2013, dated 2023)

Columns and labels:
Assay type in all cases: cell-based, human
[1] = test system: PBMCs from vaccinated cancer patients; experiment: Establishment of T-cell lines with peptide-pulsed APCs
From the text: Patients-PBMCs were used from two patients with prostate cancer enrolled in a previously described clinical trial of PSA-TRICOM vaccine in combination with […] al., Lancet Oncol., 13: 501-8 (2012)). An institutional review board of the National Institutes of Health (NIH) Clinical Center had approved the procedures, and informed consent was obtained in accordance with the Declaration of Helsinki. […] Cells were restimulated every 7 days.

[2] = test system: T-C6A T-cell line; experiment: Detection of cytokines, T-cell line generated with C6A
Experimental: (§1) Cells were restimulated every 7 days.
Detection of cytokines—Autologous B cells pulsed with peptides at different concentrations (25, 12.5, 6.25 and 3, 13, and 1.56 μg/ml) were incubated with MUC1-specific T-cell lines at a 2:1 ratio for 24 hours.

[3] = test system: T-C7 T-cell line; experiment: Detection of cytokines, T-cell line generated with native C7; conditions: 24 hours with peptide-pulsed B-cells
Experimental: as §1
(§2) Detection of cytokines—Autologous B cells pulsed with peptides at different concentrations (25, 12.5, 6.25 and 3, 13, and 1.56 μg/ml) were incubated with MUC1-specific T-cell lines at a 2:1 ratio for 24 hours. The supernatants were analyzed for IFN-γ by ELISA (Invitrogen, Frederick, Md.).
(§3) Each cell line was then stimulated for 24 hours with B-cells pulsed with either the native C7 or agonist C7A peptide, and cytokine levels in the supernatant were analyzed.

[4] = test system: T-C7A T-cell line; experiment: Detection of cytokines, T-cell line generated with agonist C7A; conditions: 24 hours with peptide-pulsed B-cells
Experimental: as §1, §2, §3

[5] = T-cell line T-C6A stimulated with peptide
[6] = stimulation of the T-cell line generated with C6A

Sequence	generation of T-cell lines using APCs pulsed with the peptide [1]	GM-CSF [3]	IFN-γ [3]	IL-2 [3]	IL-6 [3]	IL-8 [3]	IL-10 [3]	TNFα [3]	GM-CSF [4]	IFN-γ [4]	IL-2 [4]	IL-6 [4]	IL-8 [4]	IL-10 [4]	TNFα [4]	further results
KYHPMSEYAL [Peptide C6A]	could be generated	–	–	–	–	–	–	–	–	–	–	–	–	–	–	GM-CSF [2, 5]: 1277 pg/mL/2.5 × 10^5 T cells; IFN-γ [2, 5]: 3060 pg/mL/2.5 × 10^5 T cells; IL-2 [2, 5]: 3630 pg/mL/2.5 × 10^5 T cells; IL-6 [2, 5]: 7.6 pg/mL/2.5 × 10^5 T cells; IL-8 [2, 5]: 11.8 pg/mL/2.5 × 10^5 T cells; IL-10 [2, 5]: 16.4 pg/mL/2.5 × 10^5 T cells; TNFα [2, 5]: 1021 pg/mL/2.5 × 10^5 T cells; GM-CSF level [2, 6]: > 10,000 pg/mL/10^5 cells; IFN-γ level [2, 6]: 2,651 pg/mL/10^5 cells; IL-2 level [2, 6]: < 50 pg/mL/10^5 cells; IL-6 level [2, 6]: < 50 pg/mL/10^5 cells; IL-8 level [2, 6]: > 10,000 pg/mL/10^5 cells; IL-10 level [2, 6]: < 50 pg/mL/10^5 cells; IL-12 level [2, 6]: < 50 pg/mL/10^5 cells; TNF-α level [2, 6]: 372 pg/mL/10^5 cells
KYTNPAVAL [Peptide C7A]	could be generated	300 pg/mL/2.5 × 10^5 T cells	1279 pg/mL/2.5 × 10^5 T cells	<2.4 pg/mL/2.5 × 10^5 T cells	7.7 pg/mL/2.5 × 10^5 T cells	7.3 pg/mL/2.5 × 10^5 T cells	45 pg/mL/2.5 × 10^5 T cells	30 pg/mL/2.5 × 10^5 T cells	910 pg/mL/2.5 × 10^5 T cells	2000 pg/mL/2.5 × 10^5 T cells	<2.4 pg/mL/2.5 × 10^5 T cells	40 pg/mL/2.5 × 10^5 T cells	360 pg/mL/2.5 × 10^5 T cells	375 pg/mL/2.5 × 10^5 T cells	70 pg/mL/2.5 × 10^5 T cells	–
SYTNPAVAA [Peptide C7, native MUC1-C HLA-A24 peptide, position 502-510, reference compound]	could be generated	237 pg/mL/2.5 × 10^5 T cells	750 pg/mL/2.5 × 10^5 T cells	<2.4 pg/mL/2.5 × 10^5 T cells	6.4 pg/mL/2.5 × 10^5 T cells	6.8 pg/mL/2.5 × 10^5 T cells	25 pg/mL/2.5 × 10^5 T cells	21 pg/mL/2.5 × 10^5 T cells	215 pg/mL/2.5 × 10^5 T cells	680 pg/mL/2.5 × 10^5 T cells	<2.4 pg/mL/2.5 × 10^5 T cells	<2.4 pg/mL/2.5 × 10^5 T cells	112 pg/mL/2.5 × 10^5 T cells	92 pg/mL/2.5 × 10^5 T cells	30 pg/mL/2.5 × 10^5 T cells	–
TYHPMSEYPT [Peptide C6, native MUC1-C HLA-A24 peptide, position 462-471, reference compound]	unsuccessful	–	–	–	–	–	–	–	–	–	–	–	–	–	–	–
